Assay results taken from US20020169364A1, “Brainstem and limbic disorder (BALD)” (priority 2000, published 2002).
Structures can show the parent of a compound that is named as a salt.

Test: Clinical use in treatment protocol of the BALD syndrome
Format: in vivo
Conditions: for clinical outcome, pulmonary problems: BALD patients with pulmonary problems (restrictive lung disease); for clinical outcome in treatment of the BALD syndrome: patients with BALD syndrome, core treatment steps (calcium channel blocker, anti-viral/anti-fungal, chelating agent)
Source text: The treatment protocol consists of ruling in or out of the BALD syndrome then treatment of the core pathology of the syndrome if present. This consists of treatment of the most acute aspects of the BALD syndrome followed by more conservative treatments of the more chronic symptoms or pathology. If diagnosis progresses to brainstem or other neuron damage with significant inflammation the treatment consists of immediate inflammation reduction and stabilization of the immune system. This is followed by conservative treatments as indicated in the diagnosis of the disorder.
The treatment proceeds in steps.
Step one in the treatment of the disorder would start with drugs that are known to block calcium intake channels of neurons. […] The usual dosage can be 30 mg. three times daily more or less in the clinical judgment of the physician.
Step three in the treatment of a BALD syndrome involving viral infection to any degree is to administer anti-viral and anti-fungal drugs to the patient. […] This is a synthetic acyclic purine nucleoside analog.
This Is a synthetic broad spectrum bis-trazole antifungal agent. […] This is a synthetic trazole antifungal agent with the chemical name of itraconazole.
Step seven is to administer a chelating agent to the patient to eliminate toxic heavy metals from the system.
Azulfadine should be started for patients with irritable bowel syndrome.

Row | SMILES | clinical outcome in treatment of the BALD syndrome | other results
1 | CC(C)(O)c1ccccc1CC[C@@H](SCC1(CC(=O)O)CC1)c1cccc(/C=C/c2ccc3ccc(Cl)cc3n2)c1 [Singulair, sodium montelukast] | – | clinical outcome, pulmonary problems: Clinical success
2 | CC(C)[C@H](N)C(=O)OCCOCn1cnc2c(=O)[nH]c(N)nc21 [Valtrex, valacyclovir hydrochloride] | clinically successful | –
3 | O=C(O)c1cc(/N=N/c2ccc(S(=O)(=O)Nc3ccccn3)cc2)ccc1O [Azulfadine, sulfasalazine] | – | clinical outcome, irritable bowel syndrome (BALD patients with irritable bowel syndrome): successful drug in clinical usage
4 | COc1cc(C(=O)NS(=O)(=O)c2ccccc2C)ccc1Cc1cn(C)c2ccc(NC(=O)OC3CCCC3)cc12 [Accolate, zafirlukast] | – | clinical outcome, pulmonary problems: clinically successful
5 | OC(Cn1cncn1)(Cn1cncn1)c1ccc(F)cc1F [difulcan, fluconazole] | good clinical results | –
6 | Nc1nc2c(ncn2COCCO)c(=O)[nH]1 [Acyclovir, acycloguanosine] | Clinical success | –
7 | O=C([O-])CN(CCN(CC(=O)[O-])CC(=O)O)CC(=O)O.[Na+].[Na+] [EDTA, edate disodium] | Clinical success | –
8 | O=C1CN=C(c2ccccc2Cl)c2cc([N+](=O)[O-])ccc2N1 [Klonapin, clonazepam] | – | clinical outcome, anti-anxiety (BALD patients, anti-anxiety drug): clinically successful
